What was measured:
[1] = test system: peptide loaded on labeled RMA-S/HHD; conditions: F. A. Lemonnier, unpublished; cited from earlier work
[2] = test system: peptide loaded on labeled RMA-S/HHD; test: Immunogenicity of peptides in HHD mice: vaccination with peptide-loaded RMA-S/HHD/B7.1, cytolytic assay on peptide-loaded targets; assay type: in vivo; conditions: for Score: immunogenic score: ratio of specific lysis, specific peptide vs tyrosinase peptide loaded on RMA-S/HHD, average of two experiments, positive above 125%; for antigenic / immunogenic in HHD mice: mouse, in vivo
Protocol: FIG. 4 is a graph of the results of in vitro cytolytic assays. Seven peptides are immunogenic. Peptides were loaded on RMA-S/HHD/B7.1, washed and irradiated. HHD mice were immunized three times as described in the materials and methods section in Example 1. In vitro cytolytic assays were performed on the relevant peptide as target and on an irrelevant peptide. The score was deduced from the ratio of the specific lysis that were obtained. The positive peptides (above 125%) are marked by arrows. Peptides 1-6, 3-5 and 3-7 are derived from “Human 1-8D gene”.
(§1) Vaccination. HHD mice were immunized i.p. 3 times at 7-day intervals with 2×10^6 irradiated (5000 rad) tumor cells, or irradiated peptide-loaded RMA-S/HHD/B7.1 transfectants. Spleens were removed on day 10 after the last immunization, and splenocytes were restimulated in vitro, either with irradiated tumor cells or with one third of the lymphocytes pre-pulsed with 100 μM synthetic peptides in opti-MEM (Life Technologies) for 2 hr at 37° C., 5% CO2. Restimulated lymphocytes were cultured in RPMI-HEPES medium containing 10% FCS, 2 mM glutamine, combined antibiotics, 1 mM sodium pyruvate, 25 mM HEPES, 5×10^−5M PME and 1% NEAA for 5 days. Viable cells (effectors) were separated by Lympholyte-M (Cedarlane, Hornby, Canada) gradient, resuspended and admixed at different ratios with 5,000 ^35S-methionine-labeled target cells. Cytolytic assays were carried out as described previously in Carmon et al., 2000. Extracts of tumor peptides or normal colon peptides were prepared from a pool of 6 post-surgical colon carcinoma specimens as described before Carmon et al., 2000.
The antigenic peptides were tested for their specific immunogenicity in HHD mice. HHD mice were vaccinated with RMA-S/HHD/B7.1 cells loaded with each of the peptides (listed in Table 3), their spleens were removed, and resensitized in vitro with synthetic peptides for four days. On the fifth day, a cytolytic assay was performed on two targets, either the peptide itself loaded on labeled RMA-S/HHD or the tyrosinase peptide as a negative control. The ratio of specific lysis between specific and tyrosinase peptides was defined as “immunogenic score”. This experiment was repeated twice and the average score of each of the antigenic peptides is specified (Table 3 and FIG. 4). The horizontal line in FIG. 4 represents the limit of 95% significance as defined by assuming normal distribution of scores.

HLA-A2.1 = target: T1, HLA-A2.1 (Homo sapiens, UniProt P04439, D140Y/D185E/D98H/E176V/E277Q/G131W/G231S/I119V/I121R/I166T/I218V/L300P/L318F/N151K/N90K/P208A/P217A/Q86G/Q94H/R138H/R169H/T345S); test: T2 stabilization assay (peptide binding to HLA-A2.1); conditions: acid stripped T2 cells, peptide and recombinant β2m, BB7.2 mAb, FACS
T1 construct: endogenous in cells; host or cells: T2 cells (TAP-2-deficient lymphoblastoid line)
Protocol: T2 cells were acid stripped and incubated with the indicated peptide and recombinant β2m or with β2m alone as a negative control. FIG. 5D is the tyrosinase peptide as the positive control. Cells were stained with BB7.2 mAb and analyzed by FACS. The number of positive cells above control level is indicated for each of the peptides.
(§2) Intrigued by this finding, the laboratory of the present inventors focused on the 1-8D peptides. Peptide binding to HLA-A2.1 was verified by a T2 stabilization assay (Firat et al., 1999). […] 1-8D peptides were next tested for induction of anti-HCT/HHD CTL responses by vaccinating HHD mice with the 1-8D peptides (Carmon et al., 2000).

HCT/HHD cells [3] = test: Anti-HCT/HHD CTL response after vaccination of HHD mice with 1-8D peptides; assay type: in vivo; conditions: for lysis of HCT/HHD by peptide-induced CTL: HHD mice immunized with peptide loaded on RMA-S/HHD/B7.1; for ranking as vaccine against HCT/HHD (in vitro cytolytic capacity): mouse, in vivo
Protocol: FIG. 6 is a graph showing that the 1-8D peptides can mount anti-HCT/HHD CTL responses. HHD mice were immunized with HCT/HHD/B7.1 and with peptide loaded on RMA-S/HHD/B7.1. In vitro cytolytic assays were performed using HCT/HHD cells as targets. The specific lysis at E:T in 50:1 ratio of a representative experiment out of three is shown.
as §1, §2

[4] = test system: EL4/HHD/1-8D transfected cells; test: Lysis of 1-8D transfectants by CTL from peptide-immunized HHD mice; assay type: in vivo; conditions: high background lysis of EL4/HHD
Protocol: FIGS. 8A-8C are graphs that show 1-8D peptides 1-6 (FIG. 8A), 3-5 (FIG. 8B), and 3-7 (FIG. 8C) mount CTL responses that lyse 1-8D transfectants. Each peptide was loaded on RMA-S/HHD/B7.1 and used to immunize HHD mice. In vitro cytolytic assays were performed using EL4/HHD cells (open circles) and EL4/HHD/1-8D transfected cells (dark circles) as a target. The specific lysis of a representative experiment out of three is shown.
The 1-8D peptides are presented by HHD molecules on HCT/HHD cells. […] The plasmid was stably transfected into EL4 cells together with an HHD plasmid. HHD mice were immunized with the 1-8D peptides and a cytolytic assay was performed. The susceptibility of EL4/HHD/1-8D transfectant and the parental EL4/HHD cells to be lysed by anti-1-8D lymphocytes were compared. FIG. 8A-8C summarizes the results of these cytolytic experiments.

HCT/HHD cells [5] = test: Adoptive transfer of anti-1-8D peptide lymphocytes to nude mice bearing HCT/HHD footpad tumors; assay type: in vivo, CD1-nude mice; conditions: for day from which retardation in tumor growth is significant (P<0.05): 10^7 restimulated lymphocytes i.v. three days post challenge, IL-2, one tailed student t-test
Protocol: FIG. 9 is a graph showing that nude mice were challenged in the foot pad with HCT/HHD cells. Lymphocyte from vaccinated HHD mice were transferred together with IL-2 to the tumor bearing mice and the growth of the tumor was monitored twice a week.
Adoptive transfer. CD1-nude mice were challenged in the footpad with 3×10^6 HCT/HHD cells. Three days later, 10^7 viable re-stimulated effector cells were injected i.v. to the tail vein. One thousand units of IL-2, was injected i.p. twice a day for 7 consecutive days post transfer. Tumor growth was monitored by measuring the diameter of the footpad with calipers. Mice were sacrificed when one of the tumor diameters reached 10 mm.
The anti-tumor efficacy of anti-1-8D peptide CTL was evaluated next. A transfer model, in which HCT/HHD cells were inoculated to the footpads of nude mice, was established. Three days post footpad challenge, in vitro restimulated HHD lymphocytes were transferred i.v. and the tumor growth was monitored.

peptide pulsed T2 cells = test: In vitro priming of human CTL precursors with 1-8D peptides; assay type: cell-based; conditions: for activating peripheral CTLp to lyse target cells in a peptide specific manner: PBMC of two normal donors, after 4 consecutive stimulations
Protocol: FIG. 10 are graphs showing PMBC from 4 donors checked for existence of CTL precursors. Left hand panel-peptide 1-6 stimulated CTLp. Middle Panel-peptide 3-5 stimulated CTLp. Right hand panel-peptide 3-7 stimulated CTLp. […] PBMC were supplemented with IL-7, and two days later IL-2 was added and renewed every three days. The rest of the stimulations were done every 7 days over peptide pulsed monocytes. Seven days after the third stimulation, lymphocytes were harvested and a cytolytic assay was performed using peptide pulsed (closed squares, closed circles, open triangles, X signs) or non-pulsed T2 cells (open circles) as targets. Closed squares represent CTLp from donor A, closed circles represent CTLp from donor B, open triangles represent CTLp from donor C, Xs represent CTLp from donor D, and open circles represent non-pulsed T2 cells.
In vitro priming of human CTL. Leukopheresis products of four healthy donors were obtained from Barzilai Medical Center (Ashkelon, Israel) according to Declaration of Helsinki Principles. PMBC were isolated by centrifugation on Ficoll-Plaque Plus gradients (Amersham, Sweden). The procedure was carried out according to Thurner et al., with minor modifications. Briefly, in vitro priming was done over autologous DC that were prepared from monocytes by IL-4 and GM-CSF treatment and matured with a IL-1β, IL-6, TNF-α and PGE2 cocktail. DC were pulsed with the synthetic peptides and PBMC were supplemented with IL-7. Two days later IL-2 was added and renewed every three days. The rest of the stimulations were done every 7 days over peptide pulsed monocytes. […]

EL4/HHD cells = test: Immunogenicity of PSGR-derived peptides in HHD mice (peptide-loaded dendritic cells); conditions: mouse, in vivo
Protocol: FIGS. 15A and 15B are graphs showing immunogenicty of PSGR-derived peptides in HHD mice. The mice were immunized i.v. three time with 1×10^6 syngeneic dendritic cells (DCs) loaded with either PSGR-1 or PSGR-6 peptides. Spleens were removed on day 10 after the last immunization, and splenocytes were re-stimulated in vitro by 100 μM PSGR-1 (FIG. 15A) or PSGR-6 (FIG. 15B) derived peptides in OPTIMEM for 2 h at 37° C., 5% CO2, followed by restimulation of lymphocytes for 4 more days in RPMI-HEPES. CTL assays were performed on day 5 with individual PSGR-1 or PSGR-6 derived peptides loaded on EL4/HHD cells as targets. Non-relevant PAP derived peptide-loaded EL4/HHD cells were used as negative controls. 100:1, 50:1, 25:1, 12.5:1 effector-to-target ratios are shown.
The immunogenicity of the peptides, namely their potential to induce T cell responses, was subsequently examined in an in vivo model. A strain of β2 microglobulin (β2m) HLA-A2.1 Monochain Transgenic, H-2D^b−/−Xβ2m^−/− double knockout mice (HHD mice) was used. Upon vaccination of these mice, a repertoire of human HLA-A2.1 restricted CTLs is produced. The lysis patterns of each of the individual peptides loaded on target cells were first evaluated following immunization with syngeneic dendritic cells pulsed with pools of 2-4 synthetic peptides derived from each examined protein.

[6] = healthy donor PBMC, peptide pulsed vs non-pulsed T2 targets

Sequence | immunogenicity in the HHD model [1] | Score [2] | antigenic / immunogenic in HHD mice [2] | binding to HLA-A2.1 (stabilization of HLA-A2 on T2 cells) (HLA-A2.1) | lysis of HCT/HHD by peptide-induced CTL (HCT/HHD cells [3]) | ranking as vaccine against HCT/HHD (in vitro cytolytic capacity) (HCT/HHD cells [3]) | lysis of 1-8D transfectant compared to EL4/HHD cells [4] | day from which retardation in tumor growth is significant (P<0.05) (HCT/HHD cells [5]) [days] | activating peripheral CTLp to lyse target cells in a peptide specific manner (peptide pulsed T2 cells) | CTL activity of stimulated CTLp, donor A (peptide pulsed T2 cells; [6]) | CTL activity of stimulated CTLp, donor B (peptide pulsed T2 cells; [6]) | CTL activity of stimulated CTLp, donor C (peptide pulsed T2 cells; [6]) | level of immunogenicity in HHD mice (EL4/HHD cells) | effect on in vivo growth of HCT/HHD (HCT/HHD cells [5]; adoptive transfer, nude mice) | CTL activity of stimulated CTLp, donor D (peptide pulsed T2 cells; [6])
TLNAWVKVV [HIV derived peptide] | weak immunogen |  |  |  |  |  |  |  |  |  |  |  |  |  | 
EMKEEQEV (listed as Homo sapiens) [Peptide 1-6, Human 1-8D gene from interferon inducible gene 20-28] |  | 181.3 | antigenic and immunogenic | stabilize HLA-A2 on T2 cells | lyse the human colon carcinoma line HCT-15-HHD | intermediate | better lysed | 13 | incompetent | not | low yet specific CTL activity | not |  |  | 
GLEKAHFWV (listed as Homo sapiens) [PSGR-6, PSGR start position 18] |  |  |  |  |  |  |  |  |  |  |  |  | low |  | 
KCLNIWALI (listed as Homo sapiens) [Peptide 3-7, Human 1-8D and 1-8U genes from interferon inducible genes 103-111] |  | 487.5 | antigenic and immunogenic | stabilize HLA-A2 on T2 cells | lyse the human colon carcinoma line HCT-15-HHD | least effective | better lysed | 13 | highly efficient | high CTL activity | high CTL activity | low activity |  | least effective | low activity
LILGIFMTI (listed as Homo sapiens) [Peptide 3-5, Human 1-8D gene from interferon inducible gene 110-118] |  | 176.7 | antigenic and immunogenic | stabilize HLA-A2 on T2 cells | lyse the human colon carcinoma line HCT-15-HHD | most effective | roughly equal | 11 | incompetent |  | low yet specific CTL activity | not and low yet specific CTL activity |  |  | 

Reference: patent publication US7906620B2, “Tumor associated antigen, peptides thereof, and use of same as anti-tumor vaccines” (Yeda Research and Development Co. Ltd., priority 2002, dated 2011)
